This note sets out measurements from patent US20120149735A1, “1,4-Dihydropyridine Derivatives and Their Uses” (CENTRE HOSPITALIER REGIONAL UNIVERSITAIRE DE LILLE, priority 2009, published 2012).

The target of data set [1] is T1, hCB2 cannabinoid receptor (Homo sapiens, UniProt P34972).
T1 construct: purchased PerkinElmer (Belgium)
Description: Competition binding assay, hCB2 membranes, [3H]-CP-55,940. The method, then:
hCB1 and hCB2 membranes were purchased from PerkinElmer (Belgium). […] Glass fiber filters were purchased from Whatman (Maidstone, U.K.), while Aqualuma was from PerkinElmer (Schaesberg, The Netherlands). Stock solutions of the compounds were prepared in DMSO and further diluted […] with the binding buffer to the desired concentration. Final DMSO concentrations in the assay were less than 0.1%.
The test compounds were present at varying concentrations and the non-specific binding was determined in the presence of 10 μM HU-210. After 1 h the incubation was stopped and the solutions were rapidly filtered through 0.5% PEI pretreated GF/B glass fiber filters on a M-48T Brandell cell harvester and washed twice with 5 mL ice-cold binding buffer without serum albumin. […] Assays were performed at least in triplicate.
(§1) IC50 and EC50 values were determined by non-linear regression analysis performed using the GraphPad prism 4.0 program (GraphPad Software, San Diego). The Ki values (expressed as pKi) were calculated based on the Cheng-Prusoff equation: Ki=IC50/(1+L/Kd). Statistical signification of [^35S]-GTPγS assay results was assessed using an one-way ANOVA followed by a Dunett post-test.

In the next data set the target is T2, hCB2 receptor (Homo sapiens, UniProt P34972).
T2 construct: purchased PerkinElmer (Belgium)
Description: [35S]-GTPγS binding assay (CB2 functional activity assay). In kind it is biochemical. As to conditions: for EC50: [35S]-GTPγS binding, hCB2. The method, then: The Emax value is determined by a CB2 functional activity assay (19, 20).
[^35S]-GTPγS binding Assays
[^35S]-GTPγS (1173 Ci/mmol) was purchased from Amersham (Roosendaal, The Netherlands). The binding experiments were performed at 30° C. in plastic tubes containing 40 μg protein in 0.5 mL (final volume) of binding buffer (50 mM Tris-HCl, 3 mM MgCl2, 1 mM EDTA, 100 mM NaCl, 0.1% bovine serum albumin, pH 7.4) supplemented with 20 μM GDP.
The assay was initiated by the addition of [^35S]-GTPγS (0.05 nM, final concentration). The tubes were incubated for 1 h. The incubations were terminated by the addition of 5 mL ice-cold washing buffer (50 mM Tris-HCl, 3 mM MgCl2, 1 mM EDTA, 100 mM NaCl). The suspension was immediately filtered through GF/B filters using a 48-well Brandell cell harvester and washed twice with the same ice-cold buffer. The radioactivity on the filters was counted as mentioned above. Assays were performed in triplicate.
as §1
A general note: Binding of GTPγS marks nucleotide exchange on a G protein.

In the next data set the test system is TNBS-induced colitis. Kind of data set: TNBS-induced colitis in mice. The class given is in vivo, C57B16 mice. The note with it: for colitis macroscopic score (Wallace criteria, scale 0 to 10): intraperitoneally once daily from 3 days before TNBS, killed 3 days after TNBS, TNBS only 3.1±0.3; for histological score (Ameho criteria, scale 0 to 6): intraperitoneally once daily, TNBS only 3.7±1.

Where [2] appears, read: hCB2 membranes, [3H]-CP-55,940 (1 nM), 30° C., 1 h, read-out: Ki CB2.
Where [3] appears, read: CB2 functional activity assay, basal = 100%, read-out: Emax, bound stated.
The mark [4] stands for this setting: percentage of stimulation of [35S]-GTPγS binding, basal value set at 100%, read-out: Functional activity at CB2 EMax.
Setting [5] is: read-out: binding affinity (Ki) at the CB2 receptor.

Where two headings read alike, the source gives them in different places.

T2 sequence (P34972 whole entry): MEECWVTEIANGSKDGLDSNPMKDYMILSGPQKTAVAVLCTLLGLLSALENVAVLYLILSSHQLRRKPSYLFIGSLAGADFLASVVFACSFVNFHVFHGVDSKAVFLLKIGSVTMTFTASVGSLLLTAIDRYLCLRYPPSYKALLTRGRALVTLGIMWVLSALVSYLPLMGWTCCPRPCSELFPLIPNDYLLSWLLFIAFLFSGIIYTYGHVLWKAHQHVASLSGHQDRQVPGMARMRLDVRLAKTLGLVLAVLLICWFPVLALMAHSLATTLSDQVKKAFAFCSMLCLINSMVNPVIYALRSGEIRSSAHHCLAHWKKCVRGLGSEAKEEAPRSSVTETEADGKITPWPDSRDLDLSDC
T1 sequence (P34972 whole entry): as above

The Ki is the equilibrium dissociation constant of an inhibitor or competing ligand from its target. The Emax is the greatest response seen or fitted, relative to the assay's reference. A word on the EC50: it is the concentration at which the effect is half-maximal. Lower therefore signals an effect from little substance. The melting point is the temperature of the solid-liquid transition. Molecule `CCCCCn1cc(C(=O)NC2CCCCC2)c(=O)cc1-c1ccc(Cl)cc1` [Compound 19, 6-(4-Chlorophenyl)-N-3-cyclohexyl-4-oxo-1-pentyl-1,4-dihydropyridine-3-carboxamide] came in with a melting point of 157 °C. The Ki in data set [1] (setting [2]) came out at 78 ± 9 nM. In addition, on hCB2 receptor (CB2 functional activity assay), the “functional character at the CB2 receptor (agonist / inverse agonist)” value is recorded as “inverse agonists”. The Emax on hCB2 receptor (setting [3]) was < 62%. At hCB2 receptor, this molecule gave an EC50 of 22 ± 4 nM. Further, the Emax on hCB2 receptor (setting [4]) is 39 ± 2%.

For the molecule `CCCCCn1cc(C(=O)NC23CC4CC(CC(C4)C2)C3)c(=O)c(I)c1C` [Compound 52, N3-(1-Adamantyl)-5-iodo-6-methyl-4-oxo-1-pentyl-1,4-dihydropyridine-3-carboxamide], the Ki in data set [1] (setting [2]) was 9 ± 1.6 nM; in data set [1] (setting [5]) it was < 500 nM.

The molecule `CCn1cc(C(=O)NC(C)C23CC4CC(CC(C4)C2)C3)c(=O)cc1-c1ccccc1` [Compound 5, (R,S)—N-3-(1-(1-Adamantyl)ethyl)-1-ethyl-4-oxo-6-phenyl-1,4-dihydropyridine-3-carboxamide] returned a melting point of 224 °C. In data set [1] (setting [2]), the Ki came to 414 ± 61 nM. Besides, the Ki in data set [1] (setting [5]) was < 500 nM.

For the molecule `CCCCCn1cc(C(=O)NC23CC4CC(CC(C4)C2)C3)c(=O)cc1-c1ccc(Cl)cc1` [Compound 18, N3-(1-Adamantyl)-6-(4-chlorophenyl)-1-pentyl-4-oxo-1,4-dihydropyridine-3-carboxamide], the melting point was determined as 190 °C. In addition, the Ki in data set [1] (setting [2]) is 79 ± 7 nM.

On to `CCCCCn1cc(C(=O)NC(C)C23CC4CC(CC(C4)C2)C3)c(=O)cc1-c1ccccc1` [Compound 6, (R,S)—N-3-(1-(1-Adamantyl)ethyl)-4-oxo-1-pentyl-6-phenyl-1,4-dihydropyridine-3-carboxamide], for which the melting point was 169 °C. Also, the Ki in data set [1] (setting [2]) turned out to be 14.3 ± 2.1 nM. Further, in data set [1] (setting [5]), the Ki was < 500 nM. In addition, at hCB2 receptor (CB2 functional activity assay), the “functional character at the CB2 receptor (agonist / inverse agonist)” value was “inverse agonists”. Besides, on hCB2 receptor (setting [3]), the Emax was < 62%. This molecule registered an EC50 on hCB2 receptor of 6.5 ± 1.5 nM. Besides, at hCB2 receptor (setting [4]), the Emax stood at 46 ± 3%.

`CCCCCn1cc(C(=O)N[C@@H]2CCCc3ccccc32)c(=O)cc1-c1ccccc1` [Compound 15, (R)-4-oxo-1-pentyl-6-phenyl-N-3-(1-(1,2,3,4-tetrahydronaphthyl))-1,4-dihydropyridine-3-carboxamide] yielded a melting point of 139 °C. Besides, the Ki in data set [1] (setting [2]) came to 10.1 ± 1.1 nM. For the same molecule, the “functional character at the CB2 receptor (agonist / inverse agonist)” value on hCB2 receptor (CB2 functional activity assay) was “inverse agonists”. Besides, the Emax on hCB2 receptor (setting [3]) is < 62%. At hCB2 receptor, this molecule showed an EC50 of 1.9 ± 0.4 nM. Also, the Emax at hCB2 receptor (setting [4]) came to 42 ± 2%.

Consider `CCCCCn1cc(C(=O)N[C@H]2CCCc3ccccc32)c(=O)cc1-c1ccccc1` [Compound 16, (S)-4-oxo-1-pentyl-6-phenyl-N-3-(1-(1,2,3,4-tetrahydronaphthyl))-1,4-dihydropyridine-3-carboxamide], for which the melting point was 139 °C. The Ki in data set [1] (setting [2]) stood at 369 ± 41 nM. At hCB2 receptor (CB2 functional activity assay), the “functional character at the CB2 receptor (agonist / inverse agonist)” value is “inverse agonists”. The Emax at hCB2 receptor (setting [3]) is < 62%. The response at hCB2 receptor was half-maximal at 60 ± 16 nM (EC50). In addition, the maximal effect (Emax) at hCB2 receptor (setting [4]) worked out at 48 ± 3%.

As for `CCCCCn1cc(C(=O)NCC23CC4CC(CC(C4)C2)C3)c(=O)cc1-c1ccccc1` [Compound 8, N3-((1-Adamantyl)methyl)-4-oxo-1-pentyl-6-phenyl-1,4-dihydropyridine-3-carboxamide], the melting point was found to be 154 °C. Also, the inhibition constant Ki in data set [1] (setting [2]) is 23.3 ± 1.9 nM.

`CCCCCn1cc(C(=O)NN2CCCCC2)c(=O)cc1-c1ccccc1` [Compound 17, 4-oxo-1-pentyl-6-phenyl-N-3-(piperidin-1-yl)-1,4-dihydropyridine-3-carboxamide] registered a melting point of 122 °C. The Ki in data set [1] (setting [2]) was found to be 92 ± 7 nM. Further, the “functional character at the CB2 receptor (agonist / inverse agonist)” value on hCB2 receptor (CB2 functional activity assay) is “inverse agonists”. In addition, the Emax on hCB2 receptor (setting [3]) is < 62%. At hCB2 receptor, this molecule had an EC50 of 26 ± 6 nM. Also, the Emax at hCB2 receptor (setting [4]) came out at 48 ± 2%.

Turning to `CCCCCn1cc(C(=O)NC2CCCCC2)c(=O)cc1-c1ccccc1` [Compound 13, N3-(Cyclohexyl)-4-oxo-1-pentyl-6-phenyl-1,4-dihydropyridine-3-carboxamide], the melting point stood at 120 °C. Besides, in data set [1] (setting [2]), the Ki came to 10.6 ± 1.1 nM. At hCB2 receptor (CB2 functional activity assay), the “functional character at the CB2 receptor (agonist / inverse agonist)” value was “inverse agonists”. Also, the Emax on hCB2 receptor (setting [3]) was < 62%. At hCB2 receptor, this molecule displayed an EC50 of 1.9 ± 0.5 nM. For the same molecule, at hCB2 receptor (setting [4]), the Emax is 62 ± 2%.

`CCCCCn1cc(C(=O)NC2CCCCC2)c(=O)cc1C(C)(C)C` [Compound 21, N3-(Cyclohexyl)-6-tert-butyl-1-pentyl-4-oxo-1,4-dihydropyridine-3-carboxamide] displayed a melting point of 91 °C. The inhibition constant Ki in data set [1] (setting [2]) turned out to be 29 ± 3 nM.

Regarding `CCCCCn1cc(C(=O)NC23CC4CC(CC(C4)C2)C3)c(=O)cc1C(C)(C)C` [Compound 20, N3-(1-Adamantyl)-6-tert-butyl-1-pentyl-4-oxo-1,4-dihydropyridine-3-carboxamide], the Ki in data set [1] (setting [2]) was 29 ± 3 nM. For the same molecule, the “functional character at the CB2 receptor (agonist / inverse agonist)” value on hCB2 receptor (CB2 functional activity assay) was “agonists”. Moreover, on hCB2 receptor (setting [3]), the Emax was > 135%. The molecule further displayed an EC50 at hCB2 receptor of 12.2 ± 2.5 nM. Further, the Emax at hCB2 receptor (setting [4]) was found to be 212 ± 3%. In the data set with TNBS-induced colitis (TNBS only 20±5), the “MPO activity in colon (neutrophils content)” value came to 10±3. In addition, the “TNF-alpha mRNA expression in colon” value in the data set with TNBS-induced colitis (TNBS only 26±8) worked out at 6±1. In the data set with TNBS-induced colitis (TNBS only 1610±1041), the “IL-1beta mRNA expression in colon” value came out at 22±11. Moreover, in the data set with TNBS-induced colitis, the “colitis macroscopic score (Wallace criteria, scale 0 to 10)” value is reported as 0.8±0.4 and the “histological score (Ameho criteria, scale 0 to 6)” value is 1.8±0.6. In the data set on TNBS-induced colitis (vs TNBS only), the “decrease in colitis macroscopic scores” value was 74%, the “decrease of IL-1beta level in colon” value is on record as 99%, the “decrease of MPO activity” value amounted to 50% and the “decrease of TNF-alpha level in colon” value is on record as 79%. The “inhibition of colitis microscopic score” value with TNBS-induced colitis (vs TNBS only) amounted to 51%.

Molecule `CCCCCCn1cc(C(=O)NC23CC4CC(CC(C4)C2)C3)c(=O)cc1-c1ccccc1` [Compound 12, N3-(1-Adamantyl)-1-hexyl-4-oxo-6-phenyl-1,4-dihydropyridine-3-carboxamide] yielded a melting point of 167 °C. Moreover, the Ki in data set [1] (setting [2]) is 13.5 ± 0.9 nM.

`CCCCCn1cc(C(=O)NC23CC4CC(CC(C4)C2)C3)c(=O)cc1-c1ccccc1` [Compound 11, N3-(1-Adamantyl)-4-oxo-1-pentyl-6-phenyl-1,4-dihydropyridine-3-carboxamide] registered a melting point of 145 °C. Besides, the Ki in data set [1] (setting [2]) was found to be 4 ± 0.4 nM.

On to `CC(NC(=O)c1cn(-c2ccccc2)c(-c2ccccc2)cc1=O)C12CC3CC(CC(C3)C1)C2` [Compound 7, (R,S)—N-3-(1-(1-Adamantyl)ethyl)-1,6-diphenyl-4-oxo-1,4-dihydropyridine-3-carboxamide], for which the melting point is > 250 °C. Besides, the inhibition constant (Ki) in data set [1] (setting [5]) was > 500 nM.

Turning to `CCCCCn1cc(C(=O)NC2CCCc3ccccc32)c(=O)cc1-c1ccccc1` (racemic) [Compound 14, (R,S)-4-oxo-1-pentyl-6-phenyl-N-3-(1-(1,2,3,4-tetrahydronaphthyl))-1,4-dihydropyridine-3-carboxamide], the melting point turned out to be 139 °C. The Ki in data set [1] (setting [2]) was determined as 30.9 ± 3.3 nM. Besides, the “functional character at the CB2 receptor (agonist / inverse agonist)” value at hCB2 receptor (CB2 functional activity assay) was “inverse agonists”. The Emax at hCB2 receptor (setting [3]) was < 62%. A half-maximal effect at hCB2 receptor (EC50) was put at 5.7 ± 0.7 nM. Moreover, the Emax at hCB2 receptor (setting [4]) came out at 40 ± 1%.

As to JWH-133 [reference compound], in the data set with TNBS-induced colitis, the “colitis macroscopic score (Wallace criteria, scale 0 to 10)” value is listed as 2.1±0.6 and the “histological score (Ameho criteria, scale 0 to 6)” value was “induced a decrease of histological scores”. Moreover, in the data set with TNBS-induced colitis (vs TNBS only), the “decrease in colitis macroscopic scores” value was 34%.

Consider `CCCCn1cc(C(=O)NC23CC4CC(CC(C4)C2)C3)c(=O)cc1-c1ccccc1` [Compound 10, N3-(1-Adamantyl)-1-butyl-4-oxo-6-phenyl-1,4-dihydropyridine-3-carboxamide], for which the melting point came to 146 °C. In addition, in data set [1] (setting [2]), the inhibition constant (Ki) is 18.4 ± 1.3 nM.
